# Like-named read-outs stand apart in the source and are kept apart here.
# Biological target: T1, human cytoplasmic dynein 1 (GFP-dynein 1, AA 1320–4646) (Homo sapiens, UniProt Q14204)
# T1 construct: (AA 1320–4646 with additional valine [at position 4647], uniprot Q14204); protein A tag (followed by TEV-cleavable linker) (N, cleaved yes); made in house; host or cells: insect cells (baculovirus)
# Test: Microtubule gliding (motility) assay with GFP-dynein 1
# Format: biochemical
# From the text: To examine the inhibition of dynein 1 by dynapyrazole-A in vitro we generated recombinant human protein. We expressed and purified a GFP-tagged human dynein 1 (AA 1320–4646) construct similar to the one we used for GFP-dynein 2. […] GFP-dynein 1 moves microtubules at 508 ± 60 nm/s (n = 5 independent experiments, 191 microtubules analyzed), a velocity expected based on studies of other mammalian dynein 1 homologs ([Yamada et al., 2008]). Under these conditions, ~97% of the filaments analyzed had velocities >50 nm/s (Figure 5—figure supplement 1). […] As has been previously noted for ciliobrevin D, the potency of dynapyrazole-A was sensitive to the protein (e.g. blocking agent, serum) concentration in solution (Figure 5—figure supplement 4), likely due to the hydrophobicity of these compounds (calculated logarithm of octanol:water partition coefficient [ClogP]: ciliobrevin D: 4.5; dynapyrazole-A: 4.2) ([Firestone et al., 2012]).
# Reaction setup: A coverslip-based motility assay was adapted from similar assays reported previously ([Firestone et al., 2012]; [Schmidt et al., 2015]). A flow chamber assembled on a pre-cleaned microscope coverslide (3–5 µL chamber volume) was hydrated with buffer A (25 mM PIPES, 30 mM KCl, 5 mM MgCl2, 1 mM EGTA, 0.01% Triton X-100, 1 mM DTT, 20 µM taxol, pH 7.0 with KOH). Anti-GFP antibody (0.4 mg/mL, affinity purified rabbit antibody) was flowed into the chamber and allowed to adhere non-specifically to the glass for 20 s. The surface was blocked using 0.5 mg/mL α-casein in buffer A. Excess protein was then washed away with buffer A. GFP-dynein motor domain was diluted in buffer A supplemented with 1 mM DTT and 0.1 mM ATP (2 mM DTT final; GFP-dynein 2 diluted to: 180 nM; GFP-dynein 1 diluted to: 60 nM), flowed into the chamber and allowed to bind for 20 s. Excess protein was washed away with buffer A. Reaction mix (25 mM PIPES, 90 mM KCl, 6 mM MgCl2, 1 mM EGTA, 0.01% Triton X-100, 3 mM DTT, 20 µM taxol, 1 mM ATP, 1x oxygen scavenging system components [4.5 mg/mL glucose, 35 µg/mL catalase, 200 µg/mL glucose oxidase], 2% final DMSO [v/v] with compounds at appropriate concentrations, 0.05 mg/mL α-casein, microtubules [rhodamine labeled, purified from bovine brain, GMP-CPP and Taxol-stabilized], pH 7.0 with KOH) was flowed into the chamber using ~4 chamber volumes. For experiments shown in Figure 4—figure supplement 1, α-casein concentration in reaction mix was 0.5 mg/mL and all other parameters were held constant.
# For reversibility experiments, motility in the presence of 5 µM 8 was observed as above, and upon completion of imaging, the chamber, fresh buffer A supplemented with 1 mM ATP was flowed into the chamber and incubated for 1 min; this wash and incubation cycle was repeated twice. Reaction mix containing DMSO (no compound) was flowed into the chamber using ~4 chamber volumes. The chamber was sealed with valap and returned to the microscope.
# Microscopy conditions: Following addition of reaction mix, microtubules were allowed to bind for 5 min before imaging. For reversibility experiments, microtubules were allowed to bind for 10 min before imaging. […] Velocities were measured using the kymograph tool in FIJI ([Schindelin et al., 2012]). […]
# Microtubule velocity measurements: the tracks of microtubules were traced and converted to kymographs (x axis-displacement, y axis-time) using the kymograph function of FIJI (RRID: SCR_002285). The angle formed between an edge of a microtubule and the horizontal was measured. […]
# [1] = 1 mM MgATP, 0.05 mg/mL casein, 2% DMSO, read-out: IC50, inhibition of GFP-dynein 1-driven motility
# T1 sequence (Q14204 with tags, fused parts or gaps): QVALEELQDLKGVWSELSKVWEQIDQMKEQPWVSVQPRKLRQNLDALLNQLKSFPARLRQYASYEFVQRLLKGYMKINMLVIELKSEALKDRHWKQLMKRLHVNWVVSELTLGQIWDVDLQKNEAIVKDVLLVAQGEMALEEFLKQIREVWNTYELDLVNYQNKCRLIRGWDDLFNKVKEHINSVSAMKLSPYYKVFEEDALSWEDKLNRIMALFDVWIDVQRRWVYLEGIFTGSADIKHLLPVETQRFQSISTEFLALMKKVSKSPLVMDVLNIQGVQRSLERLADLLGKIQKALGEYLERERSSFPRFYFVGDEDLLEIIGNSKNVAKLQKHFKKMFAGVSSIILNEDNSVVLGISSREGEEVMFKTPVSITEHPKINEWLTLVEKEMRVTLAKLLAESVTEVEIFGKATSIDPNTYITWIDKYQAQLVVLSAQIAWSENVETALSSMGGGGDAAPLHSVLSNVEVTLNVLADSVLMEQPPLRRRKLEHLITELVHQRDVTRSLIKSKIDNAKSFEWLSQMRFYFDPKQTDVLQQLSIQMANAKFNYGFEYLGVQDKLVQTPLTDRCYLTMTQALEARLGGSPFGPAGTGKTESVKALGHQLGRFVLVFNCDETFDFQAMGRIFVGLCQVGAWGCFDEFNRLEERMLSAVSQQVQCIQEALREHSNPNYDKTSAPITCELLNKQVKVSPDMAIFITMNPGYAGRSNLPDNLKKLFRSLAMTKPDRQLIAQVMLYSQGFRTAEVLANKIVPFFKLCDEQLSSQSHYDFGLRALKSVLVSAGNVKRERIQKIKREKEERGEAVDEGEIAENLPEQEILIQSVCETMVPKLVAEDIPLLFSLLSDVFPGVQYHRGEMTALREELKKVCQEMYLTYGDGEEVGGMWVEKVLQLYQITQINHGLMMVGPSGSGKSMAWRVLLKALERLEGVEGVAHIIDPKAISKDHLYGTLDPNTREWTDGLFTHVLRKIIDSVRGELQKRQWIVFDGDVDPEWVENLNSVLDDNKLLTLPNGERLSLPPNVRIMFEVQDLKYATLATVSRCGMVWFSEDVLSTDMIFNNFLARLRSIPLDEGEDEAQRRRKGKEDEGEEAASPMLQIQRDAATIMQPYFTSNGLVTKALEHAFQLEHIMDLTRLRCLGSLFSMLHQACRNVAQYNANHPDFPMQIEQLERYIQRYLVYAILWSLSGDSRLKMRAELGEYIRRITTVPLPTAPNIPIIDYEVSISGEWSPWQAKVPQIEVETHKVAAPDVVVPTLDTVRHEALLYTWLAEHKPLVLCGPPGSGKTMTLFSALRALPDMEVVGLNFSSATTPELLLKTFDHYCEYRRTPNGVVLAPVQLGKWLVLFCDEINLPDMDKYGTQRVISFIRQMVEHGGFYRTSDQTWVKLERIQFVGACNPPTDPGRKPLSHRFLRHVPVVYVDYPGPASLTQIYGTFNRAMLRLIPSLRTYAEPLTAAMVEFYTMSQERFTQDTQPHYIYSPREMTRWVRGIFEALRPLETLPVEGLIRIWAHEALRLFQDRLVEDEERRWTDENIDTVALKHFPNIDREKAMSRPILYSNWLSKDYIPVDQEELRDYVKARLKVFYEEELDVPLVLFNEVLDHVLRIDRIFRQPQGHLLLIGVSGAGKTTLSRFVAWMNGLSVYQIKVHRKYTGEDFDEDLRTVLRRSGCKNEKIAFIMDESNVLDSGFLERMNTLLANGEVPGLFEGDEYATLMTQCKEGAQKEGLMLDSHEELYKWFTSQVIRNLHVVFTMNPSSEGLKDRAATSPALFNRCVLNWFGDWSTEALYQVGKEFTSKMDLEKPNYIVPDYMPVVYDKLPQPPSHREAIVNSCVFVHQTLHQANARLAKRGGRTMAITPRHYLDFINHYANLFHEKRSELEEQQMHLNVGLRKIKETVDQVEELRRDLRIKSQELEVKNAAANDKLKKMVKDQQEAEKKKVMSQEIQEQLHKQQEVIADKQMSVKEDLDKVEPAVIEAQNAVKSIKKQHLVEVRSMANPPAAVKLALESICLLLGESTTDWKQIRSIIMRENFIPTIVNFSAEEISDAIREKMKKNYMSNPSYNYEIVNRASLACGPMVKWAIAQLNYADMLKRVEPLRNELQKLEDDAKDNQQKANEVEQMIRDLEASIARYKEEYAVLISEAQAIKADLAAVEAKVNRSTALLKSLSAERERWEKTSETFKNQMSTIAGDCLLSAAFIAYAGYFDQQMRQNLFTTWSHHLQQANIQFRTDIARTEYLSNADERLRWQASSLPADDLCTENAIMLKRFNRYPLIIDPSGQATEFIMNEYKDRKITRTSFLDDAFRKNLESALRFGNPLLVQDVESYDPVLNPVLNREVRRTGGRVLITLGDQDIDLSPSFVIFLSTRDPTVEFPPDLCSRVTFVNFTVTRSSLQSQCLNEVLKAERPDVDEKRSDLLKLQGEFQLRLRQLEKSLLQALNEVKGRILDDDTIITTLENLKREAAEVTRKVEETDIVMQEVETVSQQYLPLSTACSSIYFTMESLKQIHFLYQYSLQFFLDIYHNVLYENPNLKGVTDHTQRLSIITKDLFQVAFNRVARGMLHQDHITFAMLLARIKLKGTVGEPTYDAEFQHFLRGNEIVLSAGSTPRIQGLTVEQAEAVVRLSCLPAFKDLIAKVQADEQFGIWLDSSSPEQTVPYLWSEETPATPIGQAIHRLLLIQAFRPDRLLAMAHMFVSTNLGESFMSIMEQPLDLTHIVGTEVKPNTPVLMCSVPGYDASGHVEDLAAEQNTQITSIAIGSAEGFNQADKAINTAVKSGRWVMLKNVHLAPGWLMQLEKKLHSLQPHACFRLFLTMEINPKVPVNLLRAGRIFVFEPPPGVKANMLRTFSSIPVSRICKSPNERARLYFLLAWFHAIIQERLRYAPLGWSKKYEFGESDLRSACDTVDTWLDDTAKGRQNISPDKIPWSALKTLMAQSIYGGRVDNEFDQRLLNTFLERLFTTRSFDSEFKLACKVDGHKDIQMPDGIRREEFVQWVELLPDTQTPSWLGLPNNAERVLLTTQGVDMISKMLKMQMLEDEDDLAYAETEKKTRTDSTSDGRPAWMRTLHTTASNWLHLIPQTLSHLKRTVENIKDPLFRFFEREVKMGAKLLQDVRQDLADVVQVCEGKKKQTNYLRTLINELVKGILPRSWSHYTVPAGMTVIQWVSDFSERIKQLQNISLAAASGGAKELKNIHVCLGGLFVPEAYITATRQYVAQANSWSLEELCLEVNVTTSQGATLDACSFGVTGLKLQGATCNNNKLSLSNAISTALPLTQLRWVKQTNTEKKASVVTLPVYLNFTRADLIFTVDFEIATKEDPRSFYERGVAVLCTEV
Structure (SMILES),"Reversibility of inhibition of dynein-1-dependent microtubule gliding after washout (5 µM 8, then washout, 1 mM ATP, 0.05 mg/mL casein)","IC50 (1 mM ATP, 0.5 mg/mL casein, read-out: IC50, inhibition of GFP-dynein 1-driven motility in the presence of 0.5 mg/ml casein)",IC50 [1],"Potency relative to ciliobrevin D, GFP-dynein-1-driven motility (more potent than ciliobrevin D)"
"N#Cc1c(C2(c3ccc(Cl)cc3)CC2)nn2c1[nH]c(=O)c1cc(I)ccc12 [Compound 8, 2-[1-(4-chlorophenyl)cyclopropyl]-7-iodo-5-oxo-4H-pyrazolo[1,5-a]quinazoline-3-carbonitrile]",reversed following washout,10.5 ± 4.6 µM,2.3 ± 1.4 µM,~ 6 fold
"N#C/C(C(=O)c1ccc(Cl)cc1Cl)=C1\NC(=O)c2ccc(Cl)cc2N1 [ciliobrevin D, reference compound]",–,–,15 ± 2.9 µM,–
